Structures can show the parent of a compound that is named as a salt.
Columns and labels:
[1] = In vitro rat plasma stability assay, formation of tafamidis; type: in vitro ADME; details: 37° C., 2 µM test compound
Procedure: A stability assay in plasma (rat or human) was used to evaluate the ability of a compound provided herein to convert to an active TTR stabilizer. The test compound was added to plasma and incubated at 37° C. in a water bath at a concentration of 2 µM. At each time point (0, 10, 30, 60 and 120 min or 0, 60, 120, 180 and 240 min), stop solution (tolbutamide plus labetalol) was added to precipitate protein and mixed thoroughly. After centrifugation, an aliquot of supernatant was analyzed by LC-MS/MS. The percentage of formation of active agent was calculated at each time point.

[2] = In vitro rat liver S9 stability assay, formation of tafamidis; type: in vitro ADME; details: rat liver S9, 37° C., 1 µM test compound
Procedure: The test compound was added to liver S9 and incubated at 37° C. in a water bath at a concentration of 1 µM. At each time point (0, 5, 10, 20, 30 and 60 min), stop solution (tolbutamide plus labetalol) was added to precipitate protein and mixed thoroughly. After centrifugation, an aliquot of supernatant was analyzed by LC-MS/MS. The percentage of formation of active agent was calculated at each time point.

[3] = In vivo rat PK: tafamidis in plasma, CSF and brain; parameters: species or system Male Sprague-Dawley (SD) rats; details: for Tafamidis CSF/Plasma Ratio (iv): iv administration of test compound; for Tafamidis CSF/Plasma Ratio over 24 hrs (po): po administration of test compound
Description: For a compound provided herein to be an effective TTR stabilizer drug to halt and/or prevent the ocular and cerebral TTR amyloid deposition TTR amyloidosis, it has to be able to penetrate into the brain and CSF (surrogate for eye penetration) and deliver a sufficient amount of TTR stabilizer to stop TTR dissociation. A pharmacokinetic study in rat was used to evaluate the compounds. Male Sprague-Dawley (SD) rats (200-220 g weight) were acclimated for at least 2 to 3 days before being placed on study. All animals had access to certified rodent diet and water at libitum. Appropriate amount of the test compound was accurately weighed and mixed with appropriate volume of vehicle (such as DMSO/sterile water for iv dosing or 0.5% methylcellulose homogenous suspension or solution for oral administration or as a solution in a mixture NMP/PEG400/solutol/water) to administer a dose of 2, 5 or 10 mg/kg. For IV dosing the test compound was administered via tail vein or indwelling cannula. For oral dosing, the test compound was administered by oral gavage. Blood and CSF samples were collected at selected timepoints. Blood collection was performed from saphenous vein or tail vein of each animal into polypropylene tubes at each timepoint. All blood samples were transferred into EDTA-K2 tubes and centrifuged for 15 minutes at 4° C. for plasma collection. Plasma samples were kept at -80° C. until LC/MSMS analysis. CSF was collected from cisterna magna at each timepoint and quick frozen over dry ice and kept at -80° C. until LC/MSMS analysis. Brains were harvested immediately after the terminal bleeding (~ 24 hrs post dosing). The blood of the brain was perfused with normal saline. The brain was quickly picked and placed into centrifuge tube. The weight of brain samples was recorded. 4-Fold homogenization solution (MeOH/15 mM PBS (1:2)) was added into the tube according to the weighed samples. The brain was homogenized using a Polytron (3 strokes or more until homogenous, each 30 seconds) on wet ice. The samples were quick frozen over dry ice and kept at -80° C. until LC/MSMS analysis. Using a LC-MSMS method for the quantitative determination of test compound in biological matrixes, amount of test compound and active agent were measured in plasma and CSF at selected timepoints post-dosing and in brain at 24 hrs post dosing. Plasma concentration versus time data was analyzed by non-compartmental approaches using the Phoenix WinNonlin 6.3 software program. As reference, an oral dose of 2 mg/kg of tafamidis gave a CSF to plasma ratio over 24 hrs around 0.01 and a brain to plasma ratio at 24 hrs around 0.02.

SMILES	Formation of tafamidis at 120 min [1]	Formation of tafamidis at 60 min [2]	Tafamidis CSF/Plasma Ratio (iv) [3]	Tafamidis CSF/Plasma Ratio over 24 hrs (po) [3]
O=C(OCCCN1CCCC1)c1ccc2nc(-c3cc(Cl)cc(Cl)c3)oc2c1 [Compound 40, 3-(pyrrolidin-1-yl)propyl 2-(3,5-dichlorophenyl)benzo[d] oxazole-6-carboxylate]	B (B is ≥25 to <50%)	A (A is <25%)	B (B is ≥0.015 to <0.02)	–
CN(C)CCCOC(=O)c1ccc2nc(-c3cc(Cl)cc(Cl)c3)oc2c1 [Compound 1, 3-(Dimethylamino)propyl 2-(3,5-dichlorophenyl)benzo[d]oxazole-6-carboxylate]	A (A is <25%)	A (A is <25%)	B (B is ≥0.015 to <0.02)	–
O=C(OCCCN1CCC1)c1ccc2nc(-c3cc(Cl)cc(Cl)c3)oc2c1 [Compound 39, 3-(azetidin-1-yl)propyl 2-(3,5-dichlorophenyl)benzo[d] oxazole-6-carboxylate]	A (A is <25%)	A (A is <25%)	B (B is ≥0.015 to <0.02)	–
O=C(OCCCN1CCCCC1)c1ccc2nc(-c3cc(Cl)cc(Cl)c3)oc2c1 [Compound 41, 3-(piperidin-1-yl)propyl 2-(3,5-dichlorophenyl)benzo[d] oxazole-6-carboxylate]	C (C is ≥50 to <75%)	A (A is <25%)	C (C is ≥0.02)	A (A is < 0.015)
N[C@@H](Cc1cccc(OC(=O)c2ccc3nc(-c4cc(Cl)cc(Cl)c4)oc3c2)c1)C(=O)O [Compound 28, (S)-2-amino-3-(3-((2-(3,5-dichlorophenyl)benzo[d]oxazole-6-carbonyl)oxy)phenyl) propanoic acid hydrochloride]	A (A is <25%)	–	A (A is <0.015)	–
CCN(C)CCCOC(=O)c1ccc2nc(-c3cc(Cl)cc(Cl)c3)oc2c1 [Compound 48, 3-(ethyl(methyl)amino)propyl 2-(3,5-dichlorophenyl)benzo[d] oxazole-6-carboxylate hydrochloride]	B (B is ≥25 to <50%)	–	A (A is <0.015)	–
CC(CCN(C)C)OC(=O)c1ccc2nc(-c3cc(Cl)cc(Cl)c3)oc2c1 (centres unmarked) [Compound 49, 4-(dimethylamino)butan-2-yl 2-(3,5-dichlorophenyl)benzo[d] oxazole-6-carboxylate hydrochloride]	C (C is ≥50 to <75%)	–	C (C is ≥0.02)	–
CC(COC(=O)c1ccc2nc(-c3cc(Cl)cc(Cl)c3)oc2c1)CN(C)C (centres unmarked) [Compound 50, 3-(dimethylamino)-2-methylpropyl 2-(3,5-dichlorophenyl) benzo [d] oxazole-6-carboxylate]	A (A is <25%)	–	A (A is <0.015)	–
O=C(OCCN1CCC1)c1ccc2nc(-c3cc(Cl)cc(Cl)c3)oc2c1 [Compound 36, 2-(azetidin-1-yl)ethyl 2-(3,5-dichlorophenyl)benzo[d]oxazole-6-carboxylate]	C (C is ≥50 to <75%)	–	A (A is <0.015)	–
CN(C)[C@H]1CCC[C@@H]1OC(=O)c1ccc2nc(-c3cc(Cl)cc(Cl)c3)oc2c1 [Compound 116]	–	A (A is <25%)	–	A (A is < 0.015)
Cn1ccnc1CCOC(=O)c1ccc2nc(-c3cc(Cl)cc(Cl)c3)oc2c1 [Compound 177]	D (D is ≥75%)	D (D is ≥75%)	–	–
CC(CN1CCOCC1)OC(=O)c1ccc2nc(-c3cc(Cl)cc(Cl)c3)oc2c1 (centres unmarked) [Compound 143]	–	B (B is ≥25 to <50%)	–	A (A is < 0.015)
CN1CCC(OC(=O)c2ccc3nc(-c4cc(Cl)cc(Cl)c4)oc3c2)C(F)(F)C1 (centres unmarked) [Compound 14, 3,3-difluoro-1-methylpiperidin-4-yl 2-(3,5-dichlorophenyl) benzo [d]oxazole-6-carboxylate]	A (A is <25%)	–	B (B is ≥0.015 to <0.02)	–
N[C@@H](Cc1ccc(OC(=O)c2ccc3nc(-c4cc(Cl)cc(Cl)c4)oc3c2)cc1)C(=O)O [Compound 23, (S)-2-amino-3-(4-((2-(3,5-dichlorophenyl)benzo[d]oxazole-6-carbonyl)oxy)phenyl)propanoic acid hydrochloride]	A (A is <25%)	–	B (B is ≥0.015 to <0.02)	–
CC1CCC(OC(=O)c2ccc3nc(-c4cc(Cl)cc(Cl)c4)oc3c2)C1 (centres unmarked) [Compound 185]	A (A is <25%)	B (B is ≥25 to <50%)	–	–
O=C(OCCn1ccnc1)c1ccc2nc(-c3cc(Cl)cc(Cl)c3)oc2c1 [Compound 99]	B (B is ≥25 to <50%)	D (D is ≥75%)	–	–

Further lines, results first:

Formation of tafamidis at 120 min [1]	Formation of tafamidis at 60 min [2]	Tafamidis CSF/Plasma Ratio (iv) [3]	Tafamidis CSF/Plasma Ratio over 24 hrs (po) [3]	SMILES
C (C is ≥50 to <75%)	A (A is <25%)	–	C (C is ≥0.02)	CCN1CCC(OC(=O)c2ccc3nc(-c4cc(Cl)cc(Cl)c4)oc3c2)C1 (centres unmarked) [Compound 74]
A (A is <25%)	A (A is <25%)	B (B is ≥0.015 to <0.02)	A (A is < 0.015)	CN1CCC(OC(=O)c2ccc3nc(-c4cc(Cl)cc(Cl)c4)oc3c2)CC1 [Compound 11]
A (A is <25%)	A (A is <25%)	B (B is ≥0.015 to <0.02)	–	CN1CCC(COC(=O)c2ccc3nc(-c4cc(Cl)cc(Cl)c4)oc3c2)C1 (centres unmarked) [Compound 60, (1-methylpyrrolidin-3-yl)methyl 2-(3,5-dichlorophenyl)benzo [d] oxazole-6-carboxylate]
D (D is ≥75%)	A (A is <25%)	–	A (A is < 0.015)	CN1CC[C@H](OC(=O)c2ccc3nc(-c4cc(Cl)cc(Cl)c4)oc3c2)C1 [Compound 58, (S)-1-methylpyrrolidin-3-yl 2-(3,5-dichlorophenyl)benzo[d] oxazole-6-carboxylate hydrochloride]
B (B is ≥25 to <50%)	A (A is <25%)	–	–	CC(C)(C)N1CCC(OC(=O)c2ccc3nc(-c4cc(Cl)cc(Cl)c4)oc3c2)C1 (centres unmarked) [Compound 92]
B (B is ≥25 to <50%)	C (C is ≥50 to <75%)	–	–	N#CCCN1CCC(OC(=O)c2ccc3nc(-c4cc(Cl)cc(Cl)c4)oc3c2)C1 (centres unmarked) [Compound 179]
C (C is ≥50 to <75%)	D (D is ≥75%)	–	–	N#CCN1CCC(OC(=O)c2ccc3nc(-c4cc(Cl)cc(Cl)c4)oc3c2)C1 (centres unmarked) [Compound 176]
